Assay results as given in ChEMBL document CHEMBL3991601, “The target landscape of clinical kinase drugs” (Science, 2017).
The source made the active and inactive calls.

How the values were obtained:
[1] = biological target: T1, Delta(24)-sterol reductase (Homo sapiens, UniProt Q15392)
T1 sequence (Q15392 whole entry): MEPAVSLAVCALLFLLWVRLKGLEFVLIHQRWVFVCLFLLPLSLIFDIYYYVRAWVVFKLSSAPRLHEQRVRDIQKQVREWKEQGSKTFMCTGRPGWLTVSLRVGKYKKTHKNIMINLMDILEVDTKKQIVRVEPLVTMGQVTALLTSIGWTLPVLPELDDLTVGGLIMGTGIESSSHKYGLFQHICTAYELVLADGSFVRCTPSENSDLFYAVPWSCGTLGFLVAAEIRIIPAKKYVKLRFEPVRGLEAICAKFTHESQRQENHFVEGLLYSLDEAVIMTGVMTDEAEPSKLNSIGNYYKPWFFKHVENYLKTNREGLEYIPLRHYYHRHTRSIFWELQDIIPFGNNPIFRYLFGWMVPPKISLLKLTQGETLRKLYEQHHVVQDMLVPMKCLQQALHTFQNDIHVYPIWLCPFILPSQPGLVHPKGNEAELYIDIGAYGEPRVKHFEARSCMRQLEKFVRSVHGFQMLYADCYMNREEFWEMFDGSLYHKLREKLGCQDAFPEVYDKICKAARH

[2] = biological target: T2, Uncharacterized protein FLJ45252 (Homo sapiens, UniProt Q6ZSR9); details: read-out: Kd apparent; k-562, colo 205, sk-n-be(2) and mv-4-11
T2 sequence (Q6ZSR9 whole entry): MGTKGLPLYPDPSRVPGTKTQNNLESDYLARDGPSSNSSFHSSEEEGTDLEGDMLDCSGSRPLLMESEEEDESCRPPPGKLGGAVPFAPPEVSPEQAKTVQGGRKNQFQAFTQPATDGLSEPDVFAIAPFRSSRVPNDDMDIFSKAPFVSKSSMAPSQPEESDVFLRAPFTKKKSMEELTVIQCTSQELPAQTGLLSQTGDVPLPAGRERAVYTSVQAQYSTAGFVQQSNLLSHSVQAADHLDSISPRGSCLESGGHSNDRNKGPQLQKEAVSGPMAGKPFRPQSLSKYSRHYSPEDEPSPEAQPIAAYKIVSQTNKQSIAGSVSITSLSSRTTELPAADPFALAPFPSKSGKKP

[3] = biological target: Tyrosine-protein kinase JAK1 (Homo sapiens, UniProt P23458)
Chain of Tyrosine-protein kinase JAK1 (P23458 whole entry): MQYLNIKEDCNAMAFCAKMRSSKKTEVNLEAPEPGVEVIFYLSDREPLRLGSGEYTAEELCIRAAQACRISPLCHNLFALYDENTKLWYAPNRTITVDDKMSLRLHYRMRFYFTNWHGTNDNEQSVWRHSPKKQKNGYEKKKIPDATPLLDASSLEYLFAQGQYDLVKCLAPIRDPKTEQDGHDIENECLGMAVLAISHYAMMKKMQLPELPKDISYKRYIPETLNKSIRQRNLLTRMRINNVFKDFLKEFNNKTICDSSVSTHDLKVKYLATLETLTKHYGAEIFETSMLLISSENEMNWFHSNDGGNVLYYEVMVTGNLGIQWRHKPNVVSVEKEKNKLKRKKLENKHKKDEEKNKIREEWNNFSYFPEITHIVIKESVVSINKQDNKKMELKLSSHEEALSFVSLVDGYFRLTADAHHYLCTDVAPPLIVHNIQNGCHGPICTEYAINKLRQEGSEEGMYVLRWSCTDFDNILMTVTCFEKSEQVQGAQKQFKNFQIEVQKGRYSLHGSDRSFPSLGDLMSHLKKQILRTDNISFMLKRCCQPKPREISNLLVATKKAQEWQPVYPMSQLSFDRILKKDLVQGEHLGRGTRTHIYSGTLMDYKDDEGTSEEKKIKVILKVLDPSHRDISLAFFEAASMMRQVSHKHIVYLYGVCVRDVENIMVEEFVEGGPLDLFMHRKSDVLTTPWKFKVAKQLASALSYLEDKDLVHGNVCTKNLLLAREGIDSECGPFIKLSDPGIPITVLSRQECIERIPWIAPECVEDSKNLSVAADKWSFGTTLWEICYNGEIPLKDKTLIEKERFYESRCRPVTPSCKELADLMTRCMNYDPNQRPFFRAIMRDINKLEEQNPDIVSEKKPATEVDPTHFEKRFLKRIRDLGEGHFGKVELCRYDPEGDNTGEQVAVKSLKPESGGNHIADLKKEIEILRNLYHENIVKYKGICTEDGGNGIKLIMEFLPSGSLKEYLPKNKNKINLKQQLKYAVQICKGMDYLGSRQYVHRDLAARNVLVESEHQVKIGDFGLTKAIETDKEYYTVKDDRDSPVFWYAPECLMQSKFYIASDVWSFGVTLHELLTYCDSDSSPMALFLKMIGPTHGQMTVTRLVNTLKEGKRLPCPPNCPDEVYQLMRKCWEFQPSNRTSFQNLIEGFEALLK

[4] = biological target: T3, Probable ATP-dependent RNA helicase DDX6 (Homo sapiens, UniProt P26196)
T3 sequence (P26196 whole entry): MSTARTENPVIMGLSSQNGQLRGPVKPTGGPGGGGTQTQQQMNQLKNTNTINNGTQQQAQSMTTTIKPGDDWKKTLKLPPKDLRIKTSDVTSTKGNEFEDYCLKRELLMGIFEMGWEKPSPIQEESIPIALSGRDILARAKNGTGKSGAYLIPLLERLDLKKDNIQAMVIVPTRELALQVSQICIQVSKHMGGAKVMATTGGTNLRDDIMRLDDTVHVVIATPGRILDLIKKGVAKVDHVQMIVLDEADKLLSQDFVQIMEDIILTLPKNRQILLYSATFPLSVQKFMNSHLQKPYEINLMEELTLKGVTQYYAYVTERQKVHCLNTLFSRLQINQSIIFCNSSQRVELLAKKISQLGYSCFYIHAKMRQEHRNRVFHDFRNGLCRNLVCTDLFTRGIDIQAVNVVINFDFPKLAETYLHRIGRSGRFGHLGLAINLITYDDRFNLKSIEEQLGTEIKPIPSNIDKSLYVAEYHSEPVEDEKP

Wee1-like protein kinase = Wee1-like protein kinase (Homo sapiens, UniProt P30291)
Chain of Wee1-like protein kinase (P30291 whole entry): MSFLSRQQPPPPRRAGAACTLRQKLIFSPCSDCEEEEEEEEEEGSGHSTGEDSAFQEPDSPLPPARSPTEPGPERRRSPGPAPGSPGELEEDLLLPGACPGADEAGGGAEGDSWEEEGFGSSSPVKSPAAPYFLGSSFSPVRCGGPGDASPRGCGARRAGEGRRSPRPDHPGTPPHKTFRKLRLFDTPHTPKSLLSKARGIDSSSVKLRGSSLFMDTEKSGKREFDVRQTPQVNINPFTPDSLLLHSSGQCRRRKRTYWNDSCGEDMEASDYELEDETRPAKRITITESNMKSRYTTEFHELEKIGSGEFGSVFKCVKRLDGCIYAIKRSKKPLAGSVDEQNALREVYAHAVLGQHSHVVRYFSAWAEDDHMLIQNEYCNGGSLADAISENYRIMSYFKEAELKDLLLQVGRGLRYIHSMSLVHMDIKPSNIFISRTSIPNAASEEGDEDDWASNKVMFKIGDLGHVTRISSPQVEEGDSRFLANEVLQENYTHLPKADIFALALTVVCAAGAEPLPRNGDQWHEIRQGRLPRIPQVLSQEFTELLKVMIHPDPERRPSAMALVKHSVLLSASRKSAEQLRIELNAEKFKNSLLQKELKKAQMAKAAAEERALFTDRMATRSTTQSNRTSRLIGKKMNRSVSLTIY

[5] = biological target: Bone morphogenetic protein receptor type-1A (Homo sapiens, UniProt P36894)
Chain of Bone morphogenetic protein receptor type-1A (P36894 whole entry): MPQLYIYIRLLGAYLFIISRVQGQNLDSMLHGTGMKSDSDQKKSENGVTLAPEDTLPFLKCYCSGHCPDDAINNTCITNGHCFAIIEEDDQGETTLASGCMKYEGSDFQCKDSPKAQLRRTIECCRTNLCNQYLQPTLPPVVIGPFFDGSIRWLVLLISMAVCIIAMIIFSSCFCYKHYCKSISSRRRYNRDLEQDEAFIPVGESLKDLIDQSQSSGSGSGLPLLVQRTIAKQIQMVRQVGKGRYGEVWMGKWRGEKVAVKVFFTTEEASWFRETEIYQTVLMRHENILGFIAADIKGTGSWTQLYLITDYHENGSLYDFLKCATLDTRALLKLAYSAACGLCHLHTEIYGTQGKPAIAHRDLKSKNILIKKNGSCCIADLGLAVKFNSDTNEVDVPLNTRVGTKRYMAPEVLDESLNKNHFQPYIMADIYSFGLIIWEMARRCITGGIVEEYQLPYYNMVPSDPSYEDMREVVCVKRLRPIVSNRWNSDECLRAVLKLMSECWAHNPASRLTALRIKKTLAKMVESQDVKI

[6] = biological target: T4, DNA replication licensing factor MCM4 (Homo sapiens, UniProt P33991)
T4 sequence (P33991 whole entry): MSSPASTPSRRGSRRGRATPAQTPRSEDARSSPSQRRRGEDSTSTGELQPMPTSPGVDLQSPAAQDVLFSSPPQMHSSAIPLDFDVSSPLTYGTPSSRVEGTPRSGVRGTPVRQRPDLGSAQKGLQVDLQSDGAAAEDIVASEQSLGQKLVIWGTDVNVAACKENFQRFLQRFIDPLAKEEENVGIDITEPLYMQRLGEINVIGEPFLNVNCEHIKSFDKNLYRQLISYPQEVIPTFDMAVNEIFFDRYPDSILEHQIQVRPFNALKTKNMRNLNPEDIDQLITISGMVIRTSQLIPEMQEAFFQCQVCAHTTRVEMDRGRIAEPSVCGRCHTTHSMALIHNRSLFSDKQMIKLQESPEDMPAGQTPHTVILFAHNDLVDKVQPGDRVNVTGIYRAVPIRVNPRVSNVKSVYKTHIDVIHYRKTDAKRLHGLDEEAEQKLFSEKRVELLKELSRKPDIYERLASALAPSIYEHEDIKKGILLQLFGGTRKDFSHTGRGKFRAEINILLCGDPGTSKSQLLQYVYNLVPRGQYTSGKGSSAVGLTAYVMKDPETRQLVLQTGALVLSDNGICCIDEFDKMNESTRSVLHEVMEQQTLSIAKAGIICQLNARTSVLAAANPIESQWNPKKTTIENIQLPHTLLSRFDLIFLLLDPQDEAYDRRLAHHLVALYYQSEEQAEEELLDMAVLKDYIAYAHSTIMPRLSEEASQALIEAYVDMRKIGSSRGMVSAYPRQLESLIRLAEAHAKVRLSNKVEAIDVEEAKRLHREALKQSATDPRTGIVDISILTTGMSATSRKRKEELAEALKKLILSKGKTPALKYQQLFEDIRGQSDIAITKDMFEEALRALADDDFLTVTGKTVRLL

TGF-beta receptor type-1 = biological target: T5, TGF-beta receptor type-1 (Homo sapiens, UniProt P36897)
T5 sequence (P36897 whole entry): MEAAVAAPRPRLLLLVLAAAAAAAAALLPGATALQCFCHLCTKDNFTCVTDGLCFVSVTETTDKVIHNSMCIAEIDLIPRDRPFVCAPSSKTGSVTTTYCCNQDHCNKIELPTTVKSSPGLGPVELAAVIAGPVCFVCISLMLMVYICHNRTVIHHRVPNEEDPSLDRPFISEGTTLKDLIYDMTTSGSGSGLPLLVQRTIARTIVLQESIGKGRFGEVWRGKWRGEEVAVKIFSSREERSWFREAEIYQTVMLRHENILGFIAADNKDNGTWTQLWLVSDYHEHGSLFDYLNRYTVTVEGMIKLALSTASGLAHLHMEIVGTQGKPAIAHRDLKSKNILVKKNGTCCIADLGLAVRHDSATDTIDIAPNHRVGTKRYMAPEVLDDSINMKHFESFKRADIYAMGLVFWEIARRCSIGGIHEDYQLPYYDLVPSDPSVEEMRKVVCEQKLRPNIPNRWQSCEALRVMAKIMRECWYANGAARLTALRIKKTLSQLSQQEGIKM
Further: in the data inactive means no Kd found up to 30 µM.

SMILES	Kd [1]	Kd [2]	Kd [3]	Kd [4]	Kd (Wee1-like protein kinase)	Kd [5]	Kd [6]	Kd (TGF-beta receptor type-1)
C[C@@H](Oc1cc(C(=O)Nc2ccc(C(=O)N3CCN(C)CC3)cc2)nnc1N)c1c(Cl)ccc(F)c1Cl	> 30 µM (inactive)	3.36 µM (active)	> 30 µM (inactive)	> 30 µM (inactive)	> 30 µM (inactive)	> 30 µM (inactive)	> 30 µM (inactive)	> 30 µM (inactive)
C[C@H]1CNCCCN1S(=O)(=O)c1cccc2cncc(F)c12	> 30 µM (inactive)	> 30 µM (inactive)	> 30 µM (inactive)	> 30 µM (inactive)	> 30 µM (inactive)	> 30 µM (inactive)	> 30 µM (inactive)	> 30 µM (inactive)
CCNC(=O)C#Cc1ccc2c(c1)NC(=O)/C2=C(\Nc1ccc(CN(C)C)cc1)c1ccccc1	> 30 µM (inactive)	> 30 µM (inactive)	> 30 µM (inactive)	> 30 µM (inactive)	> 30 µM (inactive)	> 30 µM (inactive)	> 30 µM (inactive)	> 30 µM (inactive)
C=CC(=O)N1CCC[C@H](n2c(=O)n(-c3ccc(Oc4ccccc4)cc3)c3c(N)ncnc32)C1	> 30 µM (inactive)	> 30 µM (inactive)	> 30 µM (inactive)	> 30 µM (inactive)	> 30 µM (inactive)	> 30 µM (inactive)	> 30 µM (inactive)	> 30 µM (inactive)
Cc1nc2cc(-c3nn(C(C)C)c4ncnc(N)c34)ccc2o1	> 30 µM (inactive)	> 30 µM (inactive)	> 30 µM (inactive)	> 30 µM (inactive)	> 30 µM (inactive)	1.28 µM (active)	> 30 µM (inactive)	2.47 µM (active)
COCc1c(-c2ccc(NC(=O)Nc3cc(C(F)(F)F)ccc3F)c(F)c2)c2c(N)ncnn2c1CN1CCOCC1	> 30 µM (inactive)	> 30 µM (inactive)	> 30 µM (inactive)	> 30 µM (inactive)	> 30 µM (inactive)	> 30 µM (inactive)	> 30 µM (inactive)	> 30 µM (inactive)
COc1cc(Nc2ncc3c(n2)-c2ccc(Cl)cc2C(c2c(F)cccc2OC)=NC3)ccc1C(=O)O [ALISERTIB]	> 30 µM (inactive)	> 30 µM (inactive)	> 30 µM (inactive)	> 30 µM (inactive)	> 30 µM (inactive)	> 30 µM (inactive)	0.629 µM	> 30 µM (inactive)
Cc1nc(NC(=O)N2CCC[C@H]2C(N)=O)sc1-c1ccnc(C(C)(C)C(F)(F)F)c1 [ALPELISIB]	> 30 µM (inactive)	> 30 µM (inactive)	> 30 µM (inactive)	> 30 µM (inactive)	> 30 µM (inactive)	> 30 µM (inactive)	> 30 µM (inactive)	> 30 µM (inactive)
C=CC(=O)Nc1cc2c(Nc3ccc(F)c(Cl)c3)ncnc2cc1C#CC(C)(C)N1CCN(C)CC1 [AV-412 FREE BASE]	> 30 µM (inactive)	> 30 µM (inactive)	> 30 µM (inactive)	> 30 µM (inactive)	> 30 µM (inactive)	> 30 µM (inactive)	> 30 µM (inactive)	> 30 µM (inactive)
COc1cc([C@@H]2c3cc4c(cc3[C@H](O)[C@H]3COC(=O)[C@@H]23)OCO4)cc(OC)c1OC [AXL-1717]	> 30 µM (inactive)	> 30 µM (inactive)	> 30 µM (inactive)	> 30 µM (inactive)	> 30 µM (inactive)	> 30 µM (inactive)	> 30 µM (inactive)	> 30 µM (inactive)
NC(=O)Nc1cc(-c2cccc(F)c2)sc1C(=O)N[C@H]1CCCNC1 [AZD-7762]	> 30 µM (inactive)	0.12 µM (active)	> 30 µM (inactive)	> 30 µM (inactive)	> 30 µM (inactive)	> 30 µM (inactive)	> 30 µM (inactive)	> 30 µM (inactive)
C[C@@H](NC(=O)c1ncnc(N)c1Cl)c1ncc(C(=O)Nc2cc(C(F)(F)F)c(Cl)cn2)s1 [TOVORAFENIB]	> 30 µM (inactive)	> 30 µM (inactive)	> 30 µM (inactive)		0.252 µM (active)	> 30 µM (inactive)	> 30 µM (inactive)	> 30 µM (inactive)

Now from value to molecule:

Kd [1]	Kd [2]	Kd [3]	Kd [4]	Kd (Wee1-like protein kinase)	Kd [5]	Kd [6]	Kd (TGF-beta receptor type-1)	SMILES
> 30 µM (inactive)	> 30 µM (inactive)	> 30 µM (inactive)	> 30 µM (inactive)	> 30 µM (inactive)	> 30 µM (inactive)	> 30 µM (inactive)	> 30 µM (inactive)	Nc1ncnc2c1c(-c1cccc(OCc3ccccc3)c1)cn2[C@H]1C[C@@H](CN2CCC2)C1 [AEW-541]
> 30 µM (inactive)	3.56 µM (active)	> 30 µM (inactive)	> 30 µM (inactive)	> 30 µM (inactive)	> 30 µM (inactive)	> 30 µM (inactive)	> 30 µM (inactive)	Cc1csc(-c2nnc(Nc3ccc(Oc4ncccc4-c4ccnc(N)n4)cc3)c3ccccc23)c1 [AMG-900]
> 30 µM (inactive)	0.024 µM (active)	0.368 µM (active)	> 30 µM (inactive)	> 30 µM (inactive)	0.388 µM (active)	> 30 µM (inactive)	0.077 µM (active)	O=C(Nc1c[nH]nc1-c1nc2cc(CN3CCOCC3)ccc2[nH]1)NC1CC1 [AT-9283]
> 30 µM (inactive)	> 30 µM (inactive)	> 30 µM (inactive)	> 30 µM (inactive)	> 30 µM (inactive)	> 30 µM (inactive)	> 30 µM (inactive)	> 30 µM (inactive)	Cc1cc(C(=O)NOCCO)c(Nc2ccc(I)cc2F)n(C)c1=O [AZD-8330]
